{"source": "patent US11834698B2", "about": "“Process for determining enzyme activity in a cell by activity-based reporter gene technology (ABRGT)” (INDIAN INSTITUTE OF SCIENCE EDUCATION AND RESEARCH, priority 2018, dated 2023)", "key": {"cathepsin B GFPspark": {"target": "T1, cathepsin B GFPspark (Homo sapiens, UniProt P07858)", "T1 construct": "GFPspark (C); host or cells: HEK-293", "assay": "AbRGT FRET imaging / acceptor photobleaching, cathepsin B GFPspark in HEK-293 cells", "assay_type": "cell-based", "details": "HEK-293, inhibitor 50 μM 1 h before probe 1 labelling, STS 4 h", "description": "FIG. 20 depicts confocal images of HEK-293 cells in GFP, FRET and Rh channel Cathepsin B GFPspark transfected HEK-293 cells were treated with STS (1 μM) for 4 h and labelled (a) (i) with or (a) (iv) without probe 1. Cells were pre-treated with (a) (ii) Z-VAD-FMK (50 μM) or (a) (iii) E-64 (50 μM) inhibitor 1 h before the probe 1 labelling. (b) Quantification of the change in GFPS fluorescence intensity after rhodamine photobleaching in both unbleached control region and rhodamine bleached region (ROI), using acceptor photo-bleaching method. Error bar represents the s.e.m for n=10 cells (*P<0.00001). Scale bar, 10 μm. a.u., arbitrary units.\n(§1) Plasmids and transient transfection: GFPspark tagged plasmids; caspase-3 GFPspark tag (Cat: HG10050-ACG), caspase-7 GFPspark tag (HG10049-ACG), caspase-8 GFPspark (HG10078-ACG), caspase-9 GFPspark (HG11151-ACG) and cathepsin B GFPspark (HG10483-ACG) were procured from Sino Biological. For transfection, cells were seeded in a 6-well plate at a density of 0.4 million cells/well. At 60-70% confluency, cells were transiently transfected for 24 h at 37° C. with 1 μg of the GFPspark tagged plasmid DNA construct mixed with 5 μL of Lipofectamine 2000 (Invitrogen) according to the manufacturer's instructions. 24 h post-transfection, cells were visualized under the GFP filter for GFPspark expression under fluorescence microscope at 10× magnification.\n(§2) Labelling of active caspases in apoptotic cells with FABP: After 24 h of transfection, cells were treated with STS (1 μM) drug or TRAIL (1 μg/ml) for apoptotic induction and incubated for 2, 4, 6 and 8 h at 37° C. in a humidified atmosphere of 5% CO2/95% air. Cells were gently scraped off from the surface at the end of apoptotic induction and centrifuged at 3000 rpm for 5 min. The cell pellet was resuspended in 300 μL of fresh DMEM containing 1 μM of probe for probe 2 and incubated for additional 2 h at 37° C. in a humidified atmosphere of 5% CO2. Cells were again centrifuged at 3000 rpm for 5 mins, and the supernatant was decanted. Cells were washed with 1×PBS, thrice finally resuspended in 20 μL of 1×PBS. The cell suspension was put on a slide, and a coverslip was placed over it. It was left for air drying. Slides were then imaged for GFP, FRET and rhodamine fluorescence signals under confocal microscopy.\nInhibitor assay: Cells were pre-treated with 50 μM of Z-VAD-FMK or Q-VD-OPh or E-64 inhibitor 1 h before probe 1 labelling and incubated for 1 h at 37° C. in a humidified atmosphere of 5% CO2. Cells were gently scraped off from the surface at the end of inhibitor treatment and centrifuged at 3000 rpm for 5 min Cells were then labelled with the probe 1 as described in the previous section.\nFluorescence imaging studies, FRET procedure: Images were collected on Zeiss LSM710 confocal microscope with 25 mW argon laser using Zen10 software. The laser was tuned to lines at 488 nm (excitation laser for GFPspark) and 561 nm (excitation laser for rhodamine) Cells were examined with a 40× 1.3 NA Zeiss oil immersion objective and 2.4× zoom. Images were collected in the three channels; GFP channel, argon laser tuned at 488 nm with 2% laser intensity and fluorescence emission was collected in emission range of 490-550 nm; rhodamine channel, argon laser tuned to 561 nm laser with 2% laser intensity and fluorescence emission was collected in range 550-650 nm and FRET channel with excitation laser of GFPSPARK channel and emission range of rhodamine channel. […]"}, "caspase-3/7": {"tested_on": "caspase-3/7", "assay": "Substrate-based reporter assay, CFP-DEVDR-YFP cleavage, live cell FRET", "description": "FIGS. 8A and 8B depict the time course of cleavage for CFP-DEVDR-YFP plasmid. Time is relative to the first frame taken after 8 h of STS treatment. […] The percentage rise in the CFP/YFP intensity ratio was 47%. Rise in CFP/YFP intensity ratio is an indirect measure of caspase-3/7 activation.\nTo rule out that the obtained FRET signal in [FIG. 2b (i)] is not because of random physical interaction between GFPspark and rhodamine dye, MCF-7 cells were transfected with a plasmid encoding for enhanced green fluorescent protein (EGFP). EGFP transfected MCF-7 cells were treated with STS (1 μM) for 4 h, labelled with the probe 1. […] In-gel fluorescence assay was also performed to validate the multiple off-targets labelling of probe 1 which has also been shown in the previous reports. […] The calculated FRET efficiency for (n=15 cells) is 35±1%. […] Caspase-3 activation was also monitored using probe 2 as fABP which is different from probe 1 in terms of peptide recognition sequence; DEVD in exchange for VAD as DEVD peptide sequence is more specific for caspases as compared to VAD. Probe 2 yielded a similar pattern of fluorescence signal in GFPspark, FRET and Rh channel as that of probe 1 [FIG. 7(a)]. The calculated FRET efficiency was 35% [FIG. 7(b)]. […] Acceptor photo-bleaching method was done to confirm the FRET signal, and the calculated FRET efficiency was 32±2% [FIG. 10 (a & b)]."}, "[1]": {"tested_on": "cleaved caspase-3 p17 fragment", "assay": "Western blot of cleaved caspase-3 p17 fragment in HeLa cells", "assay_type": "cell-based", "details": "STS 1 μM, after 12 h, 18 and 24 h", "description": "FIG. 9 depicts a western blot analysis of cleaved caspase-3 p17 fragment after 18 and 24 h of STS (1 μM) treatment in HeLa cells. Lysate loading was done in triplicates. Double headed arrow representing 3 lanes with the same sample.\nTo rule out that the obtained FRET signal in [FIG. 2b (i)] is not because of random physical interaction between GFPspark and rhodamine dye, MCF-7 cells were transfected with a plasmid encoding for enhanced green fluorescent protein (EGFP). EGFP transfected MCF-7 cells were treated with STS (1 μM) for 4 h, labelled with the probe 1. […] In-gel fluorescence assay was also performed to validate the multiple off-targets labelling of probe 1 which has also been shown in the previous reports. […] The calculated FRET efficiency for (n=15 cells) is 35±1%. […] Caspase-3 activation was also monitored using probe 2 as fABP which is different from probe 1 in terms of peptide recognition sequence; DEVD in exchange for VAD as DEVD peptide sequence is more specific for caspases as compared to VAD. Probe 2 yielded a similar pattern of fluorescence signal in GFPspark, FRET and Rh channel as that of probe 1 [FIG. 7(a)]. The calculated FRET efficiency was 35% [FIG. 7(b)]. […] To confirm the reported results, the cleaved caspase-3 p17 fragment in immunoblotting was also detected by using active caspase-3 p17 antibody after […] of STS (1 μM) treatment [FIG. 9]. […]"}, "caspase-3 GFPspark": {"target": "T2, caspase-3 GFPspark (Homo sapiens, UniProt P42574)", "T2 sequence (P42574 29-175 limits assumed)": "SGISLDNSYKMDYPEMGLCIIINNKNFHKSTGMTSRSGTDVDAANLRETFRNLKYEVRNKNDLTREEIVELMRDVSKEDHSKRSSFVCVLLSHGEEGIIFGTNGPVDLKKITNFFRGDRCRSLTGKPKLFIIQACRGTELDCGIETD", "T2 sequence (P42574 176-277 limits assumed)": "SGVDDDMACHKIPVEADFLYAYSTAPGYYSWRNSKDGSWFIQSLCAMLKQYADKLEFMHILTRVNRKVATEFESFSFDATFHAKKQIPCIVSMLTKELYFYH", "assay": "AbRGT FRET imaging / acceptor photobleaching, caspase-3 GFPspark in MCF-7 cells", "assay_type": "cell-based", "set-up": "host or cells: MCF-7, HeLa, HEK-293", "details": "MCF-7, STS 1 μM 4 h", "description": "FIG. 2 depicts (a) a schematic representation of AbRGT in determining the specific activation of caspase-3 GFPspark tagged enzyme by FRET effect utilizing Rh-VAD-FMK (probe 1). (b) The fluorescence signal was collected in GFP, FRET and Rhodamine (Rh) channels. MCF-7 cells transfected with caspase-3 GFPspark treated with (i) 1 μM STS for 4 h or (ii) 1 μg/ml TRAIL for 5 h and then labelled with probe 1. (iii) Un-transfected MCF-7 cells were treated with 1 μM STS for 4 h and then labelled with the probe 1. MCF-7 cells transfected with enhanced green fluorescent protein (EGFP) plasmid treated (iv) with 1 μM STS or (v) without STS for 4 h and then labelled with probe 1, scale bar, […]. (c) FRET validation between GFPspark and rhodamine fluorophore using the acceptor photobleaching method. Images for GFP and rhodamine fluorescence signals were collected in GFP and FRET channels pre- and post-bleaching of rhodamine signals. (d) Quantification of change in GFP fluorescence intensity after rhodamine photo-bleaching in both unbleached control region and rhodamine bleached region, region of interest (ROI), area under the white square. Error bar represents the s.e.m for n=15 cells (*P<0.00001). Scale bar, 10 μm. a.u., arbitrary units.\nFIGS. 6A and 6B depict time dependent activation of caspase-3 GFPspark in MCF-7 cells upon STS (1 μM) induction. MCF-7 cells transfected with 2 μg of caspase-3 GFPspark plasmid and treated with 1 μM of STS for 2, 6, and 8 h. Cells were then labelled with the probe 1 for an additional 2 h. […] FRET validation between GFPspark and rhodamine fluorophore using the acceptor photobleaching method for the MCF-7 cells with STS induction for 2, 6 and 8 h. I=intensity (a.u.), arbitrary units. The calculated FRET efficiency for 2, 6 and 8 h are 38, 43, and 36% respectively.\nFIGS. 7A and 7B depict applying AbRGT for specific detection of active caspase-3 GFPspark using the Rh-DEVD-FMK (probe 2). Caspase-3 GFPspark (2 μg) overexpressing MCF-7 cells were treated with 1 μM of STS for 4 h and labelled with the probe 2 (1 μM). […] The rise in GFPspark intensity after rhodamine photobleaching in the background is insignificant as compared to the ROI, i.e., 68 a.u., with a calculated FRET efficiency of 35%.\nFIG. 12 depicts confocal images of MCF-7 cells in GFP, FRET and Rh channel. Caspase-3 GFPspark transfected MCF-7 cells were treated with STS for 4 h and labelled (a) with or (b) without probe 1. Cells were pre-treated with (c) Z-VAD-FMK (50 μM) and (d) Q-VD-OPh (50 μM) pan-caspase inhibitors 3 h before the probe labelling.\nas §1\nas §2, with “Cells were washed with 1×PBS, thrice finally resuspended in 20 μL of 1×PBS. The cell suspension was put on a slide, and a coverslip was placed over it. It was left for air drying. Slides were then imaged for GFP, FRET and rhodamine fluorescence signals under confocal microscopy.” left out"}}, "data": [{"molecule": "CC(C)C[C@H](NC(=O)[C@H]1O[C@@H]1C(=O)O)C(=O)NCCCCN=C(N)N", "note": "[E-64]", "values": [{"measurement": "effect of inhibitor on FRET signal", "setting": "cathepsin B GFPspark", "value": "abolished"}, {"measurement": "signal in Rh channel in presence of inhibitor", "setting": "cathepsin B GFPspark", "value": "sharp, intense punctate labelling was observed"}]}, {"molecule": "CN[C@@H]1C[C@H]2O[C@@](C)([C@@H]1OC)n1c3ccccc3c3c4c(c5c6ccccc6n2c5c31)C(=O)NC4", "note": "[STS, staurosporine]", "values": [{"measurement": "percentage rise in the CFP/YFP intensity ratio", "setting": "caspase-3/7; CFP-DEVDR-YFP plasmid, from 8 h of STS treatment", "value": 47, "unit": "%"}, {"measurement": "time of caspase-3/7 activation after treatment", "setting": "caspase-3/7; STS 1 μM, live cell imaging", "value": "10 to 12", "unit": "h"}, {"measurement": "cleaved caspase-3 p17 fragment in immunoblotting", "setting": "[1]", "value": "detected"}]}, {"molecule": "Rh-DEVD-FMK [probe 2]", "values": [{"measurement": "rise in GFP intensity after rhodamine photobleaching in ROI", "setting": "caspase-3 GFPspark; probe 1 μM", "value": 68, "unit": "a.u."}, {"measurement": "calculated FRET efficiency", "setting": "caspase-3 GFPspark; probe 1 μM 2 h, acceptor photobleaching", "value": 35, "unit": "%"}]}]}
